Results from patent US12636285B2 (ViiV Healthcare Company, priority 2019, dated 2026).
pEC50: −log10 of the molar value. ≈ marks a conversion by molar mass, not a printed value. Like-named read-outs stand apart in the source and are kept apart here.

What was measured:
[1] = Fertility studies in rats; type: in vivo, rat; settings: oral, 1,000 mg/kg/day up to 26 weeks, male and female rats
Protein-adjusted IC90 = type: cell-based; settings: read-out: protein-adjusted IC90 (PA-IC90)
Text: Mar. 4-7, 2019, Seattle, WA.).

[2] = Reproduction and development studies in rats
[3] = system: laboratory strains of HIV-1 (subtype B); assay: Antiviral activity in PBMCs and 293 cells; type: cell-based; settings: Human immunodeficiency virus 1, HEK293, n=4 strains
clinical HIV-2 isolates = assay: Antiviral activity against clinical HIV-2 isolates; type: cell-based; settings: Human immunodeficiency virus 2, n=4
[4] = system: CYP1A2, 2A6, 2B6, 2C8, 2C9, 2C19, 2D6, 3A4; UGT1A1, 1A3, 1A4, 1A6, 1A9, 2B4, 2B7, 2B15, 2B17; P-gp; BCRP; BSEP; OCT1, OCT2; OATP1B1, OATP1B3; MATE 1, MATE 2-K …; assay: Inhibition of enzymes and transporters; type: in vitro ADME

With `C[C@H]1CO[C@@H]2Cn3cc(C(=O)NCc4ccc(F)cc4F)c(=O)c(O)c3C(=O)N12` [Cabotegravir, (3S,11aR)-N-[(2,4-difluorophenyl)methyl]-6-hydroxy-3-methyl-5,7-dioxo-2,3,5,7,11,11a-hexahydro[1,3]oxazolo[3,2-a]pyrido[1,2-d]pyrazine-8-carboxamide] the “effects on reproductive organs, spermatogenesis, mating or fertility” value [1] was “did not cause adverse effects”, the IC90 (Protein-adjusted IC90) was 0.166 µg/mL (≈ 0.41 µM) and the “effect on parturition, prenatal and postnatal development study” value ([2]; oral 1,000 mg/kg/day) was “delayed the onset of parturition”. The “embryo-fetal development in rats” value ([2]; oral 1,000 mg/kg/day, in the presence of maternal toxicity) was “alterations in fetal growth (decreased body weights)”, the placental transfer ([2]; pregnant rats) was “crosses the placenta” and the pEC50 [3] was 8.77 to 9.66. For the same molecule, the pEC50 (clinical HIV-2 isolates; read-out: EC50 range) was 9.85 to 10.00, the pEC50 (clinical HIV-2 isolates; read-out: median EC50) was 9.92 and the “inhibition of listed CYP, UGT enzymes and transporters” value [4] was “not a clinically relevant inhibitor”.
